Data from patent US20240002372A1, “ANTICHOLINERGIC AGENTS” (REZUBIO PHARMACEUTICALS CO., LTD, priority 2020, published 2024).
Counter-ions that a name gives are not always drawn.

Molecular target: M3 receptor (Homo sapiens (Human), UniProt P20309)
Assay: FLIPR calcium flux assay, antagonist mode, CHO-K1 cells stably expressing M3 receptor
Type: cell-based
Conditions: inhibition of acetylcholine-induced calcium flux (8 nM acetylcholine, EC80)
Experimental: FLIPR assay was used to evaluate the potency of compounds. CHO-K1 cells stably expressing M3 receptor were cultured at 37° C. in the culture media (90% Ham's F-12 Nutrient Mixture, Gibco; 10% fetal bovine serum, Biosera; 200 μg/mL Hygromycin, and Penicillin (100 U/mL)/Streptomycin (100 μg/mL), Invitrogen) till 100% confluency in cell culture incubator (ThermoFisher, 5% CO2). Cells were harvested by using 0.25% Trypsin/EDTA, spun down at 300×g for 5 min, and resuspended in the culture media at cell density of 5×10^5 cells/mL. Twenty microliter of cell suspension (10,000 cells/well) was transferred to 384-well plate and cultured for 24 hr before assay. DMSO was used as blank control and scopolamine (MedChemExpress) as a positive control for antagonist. Compounds were prepared in DMSO (stock concentration: 1 mM) and 3×serially diluted (10 concentrations) in 384-LDV plate (Labcyte). Ninety nL of serially diluted compounds were transferred from 384-LDV plate into compound plate (PerkinElmer) by Echo 550 (Labcyte), and 30 uL assay buffer (1×HBSS with 20 mM HEPES, pH 7.4, Sigma) were added to each well. For FLIPR assay, culture media was removed and 20 uL of 1× loading dye (Assay buffer with 2 μM Fluo-8 AM, AAT Bioquest; 1 mM Probenecid and 0.0025% pluronic F-127, Sigma) was added to each well. The plate was incubated at 37° C. for 1 hr (avoid light exposure). For FLIPR assay, Excitation wavelength was set at 470/495 nm and Emission wavelength was set at 515/575 nm (Molecular Devices). Assay was performed in both agonist and antagonist modes. For agonist mode, 10 μL of diluted compounds were transferred to cell culture well and incubated at room temperature for 10 min. For antagonist mode, 10 μL diluted compounds with 8 nM acetylcholine (EC80, MedChemExpress) was added to each well, incubated at room temperature for 10 min. RFU value was calculated by subtracting minimum from maximum of FLIPR signal. Inhibitory effect of compounds on acetylcholine-induced calcium flux was calculated by % Effect=(RFUsample−RFUDMSO)/(RFUScopolamine−RFUDMSO)×100. Dose response curve fitting and IC50 value of each compound was calculated by using XLFit. The following table lists the IC50 where * means IC50>1000 nM; ** 10-100 nM; ***<10 nM.

Chain of M3 receptor (P20309 whole entry): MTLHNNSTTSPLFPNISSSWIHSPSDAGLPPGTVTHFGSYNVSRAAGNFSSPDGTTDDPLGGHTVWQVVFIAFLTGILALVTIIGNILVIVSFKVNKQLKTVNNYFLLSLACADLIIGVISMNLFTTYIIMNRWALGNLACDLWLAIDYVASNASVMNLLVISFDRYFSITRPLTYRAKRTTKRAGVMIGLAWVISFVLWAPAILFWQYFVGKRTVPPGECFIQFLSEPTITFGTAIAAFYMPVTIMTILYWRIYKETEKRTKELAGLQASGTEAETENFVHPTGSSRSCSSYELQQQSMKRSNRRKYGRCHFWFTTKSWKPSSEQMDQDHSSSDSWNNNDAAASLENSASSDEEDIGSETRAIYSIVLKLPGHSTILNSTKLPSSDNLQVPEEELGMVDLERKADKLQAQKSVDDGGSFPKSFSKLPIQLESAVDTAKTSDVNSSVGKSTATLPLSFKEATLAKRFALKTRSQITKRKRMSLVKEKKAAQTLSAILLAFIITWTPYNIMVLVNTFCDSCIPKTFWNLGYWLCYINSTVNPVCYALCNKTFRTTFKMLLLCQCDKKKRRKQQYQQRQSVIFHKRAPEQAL

Compound | IC50 [nM]
C[N+]1(C)CCC[C@@H]1COC(=O)C(O)c1ccccc1C1=CCCC1 (stereo partly drawn) [Example 7, (R)-2-((2-(2-(cyclopent-1-en-1-yl)phenyl)-2-hydroxyacetoxy)methyl)-1,1-dimethylpyrrolidin-1-ium trifluoroacetate] | 10 to 100
C[N+]1(C)CC[C@@H](OC(=O)C(O)c2ccccc2C2=CCCC2)C1 (single isomer, unassigned) [Example 2, trifluoroacetate] | < 10
C[N+]1(C)CCC(OC(=O)C(O)c2ccccc2C2CCCC2)C1 (stereo not drawn) [Example 10, 3-[2-(2-Cyclopentyl-phenyl)-2-hydroxy-acetoxy]-1,1-dimethyl-pyrrolidinium chloride] | 10 to 100
CC(C)c1ccccc1C(O)C(=O)OC1CC[N+](C)(C)C1 (stereo not drawn) [Example 12, 3-(2-hydroxy-2-(2-isopropylphenyl)acetoxy)-1,1-dimethylpyrrolidin-1-ium chloride] | > 1000
C[N+]1(C)CCC[C@@H]1COC(=O)C(O)c1ccccc1C1=CCCC1 (single isomer, unassigned) [Example 6, trifluoroacetate] | < 10
C[N+]1(C)CCC(OC(=O)C(O)c2ccccc2-c2ccccc2)C1 (stereo not drawn) [Example 11, 3-(2-([1,1′-biphenyl]-2-yl)-2-hydroxyacetoxy)-1,1-dimethylpyrrolidin-1-ium chloride] | 10 to 100
C[N+]1(C)CC[C@@H](OC(=O)C(O)c2ccccc2C2=CCCC2)C1 (single isomer, unassigned) [Example 3, trifluoroacetate] | 10 to 100
C[N+]1(C)CCC[C@H]1COC(=O)C(O)c1ccccc1C1=CCCC1 (single isomer, unassigned) [Example 8, trifluoroacetate] | 10 to 100
C[N+]1(C)CC[C@H](OC(=O)C(O)c2ccccc2C2=CCCC2)C1 (single isomer, unassigned) [Example 4, trifluoroacetate] | 10 to 100
C[N+]1(C)CC[C@H](OC(=O)C(O)c2ccccc2C2=CCCC2)C1 (single isomer, unassigned) [Example 5, trifluoroacetate] | 10 to 100
C[N+]1(C)CCC[C@H]1COC(=O)C(O)c1ccccc1C1=CCCC1 (single isomer, unassigned) [Example 9, trifluoroacetate] | < 10
C[N+]1(C)CC[C@@H](OC(=O)C(O)c2ccccc2-c2ncco2)C1 (stereo partly drawn) [Example 1, (3R)-3-(2-hydroxy-2-(2-(oxazol-2-yl)phenyl)acetoxy)-1,1-dimethylpyrrolidin-1-ium trifluoroacetate] | 10 to 100
